According to patent US7989466B2, “Methods to inhibit or augment an inflammatory response” (Cambridge Enterprise Limited, priority 1999, dated 2011):
Where two headings read alike, the source gives them in different places. Marks after values point to notes of the source that are not given here. Positions of bridges follow the written chain, without caps; N, C: chain ends. Non-standard residues stand in square brackets, D forms with d. Residues, ends and D or L forms follow the SMILES beside them. No end group written: not given here.

Legend:
[1] = system: chemokine receptors on THP-1 cells; assay: Binding to chemokine receptors on THP-1 cells; parameters: species or system human
Protocol: In general, specific binding is calculated as the amount of labeled agent bound in the absence of cold competitor minus the amount of labeled agent bound in the presence of cold competitor. The amount of specific binding in the presence of varied amounts of cold competitor can be used to determine the association constant for the agent, as well as the number of binding sites on the cell for the agent, using, for example, Scatchard Analysis. The agent may be labeled by radiolabeling (e.g., iodination) or with a suitable biochemical tag (e.g., biotin) or by addition of a photoactivatable crosslinking group. Agents with an association constant lower than 100 μM (i.e., which bind more strongly than an agent with an association constant of 100 μM) and which have at least about 2,500, preferably at least about 10,000, and more preferably greater than 25,000, binding sites per cell for at least one cell type which expresses a chemokine receptor, fall under the scope of this invention. THP-1 cells have at least about 5,000 MCP-1 receptors/cell.
For example, monocytes are suspended in RPMI 1640 medium without bicarbonate containing 0.2% bovine serum albumin and 0.1% azide. Radiolabeled chemokine peptide is incubated with 1-2×10^6 cells, e.g., THP-1 cells, in the presence or absence of increasing concentrations of unlabeled chemokine (MCP-1, MCP-3, MCP-4, RANTES or MIP-1α) for 15 minutes at 37° C. in a 96-well plate in a final volume of 0.2 ml (e.g., PBS+0.5% FCS). After the incubation, 0.5 ml of ice-cold wash buffer (20 mM Tris, 0.5 M NaCl, pH 7.4) is added, and cells are collected onto a polyethyleneimine-treated Whatman GF/C filter using a Brandall cell harvester. Filters are washed with 4 ml of cold wash buffer, and the radioactivity bound to the filters is counted in a γ-counter.
For Scatchard analysis, the absorbance readings at 450 nm were calibrated, by reference to a standard curve in which known amounts of labeled peptide were coupled to derivatized sepharose beads (activated thiol-sepharose 4B; Sigma T8512) via the cysteine residue in each peptide. Briefly, known amounts (1 fmol to 1 pmol) of biotin-labeled peptide were incubated with 1 mg of activated thiol-sepharose beads in 100 μl of PBS at 37° C. for 1 hour. Free activated thiols were then blocked by addition of cysteine to a final concentration of 10 mM. The peptide-conjugated beads were then washed 5 times in PBS and treated exactly as for the cells described above. The absorbance at 450 nm obtained when a known amount of peptide was coupled to the beads was used to construct a standard curve which was used to convert the absorbance readings obtained with cells into number of molecules of labeled peptide which had bound.

[2] = system: SDF-1α induced THP-1 migration; assay: THP-1 trans-well migration assay, SDF-1α as chemoattractant; format: cell-based, human; settings: for % inhibition at 100 μM versus SDF-1α, THP-1 migration: n.s. = no statistically significant inhibition
Summary of the method: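 5×10^4 THP-1 cells with serially diluted peptide in upper chamber, 5 µm filter, recombinant human chemokine 50 ng/ml (5.9 nM) in lower chamber. Incubated 4 h at 37 °C. Migrated cells counted by MTT staining, A595 read against a THP-1 standard curve.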

[3] = n.s. = no statistically significant inhibition (p > 0.05)

Q: Which “association constant for chemokine receptors on THP-1 cells” value [1] does the source give for `CC[C@@H](C)[C@H]1NC(=O)[C@@H](CCC(N)=O)NC(=O)[C@H](N)CSSC[C@H](C(N)=O)NC(=O)[C@@H](CC(C)C)NC(=O)[C@@H](CC(=O)O)NC(=O)[C@H]2CCCN2C(=O)[C@@H](CCCCN)NC(=O)[C@@H](CCC(N)=O)NC(=O)[C@@H](CCCCN)NC(=O)[C@@H](Cc2c[nH]c3ccccc23)NC1=O` (H-[dC][dQ][dI][dW][dK][dQ][dK][dP][dD][dL][dC]-NH2; disulfide 1-11; N-terminus assumed) here?
A: 100 to 500 nM

Q: And the “number of binding sites per cell, THP-1 cells” value (“number … per cell, THP-1 cells” below) [1]?
A: about 150,000 per cell

Q: How did the EC50 ([2]; Homo sapiens, THP-1, read-out: ED50, SDF1α chemotaxis assay) turn out when `C=CCCCCCCCCC(=O)N[C@H]1CCC(=O)NC1=O` [A-I (NR58.4), [3S]-3-(undec-10-enoylamino)piperidine-2,6-dione] was run?
A: 0.008 µM

Q: How did the “ED50 versus SDF-1α, inhibition of THP-1 migration” value [2, 3] turn out when `NCCCC[C@H](NC(=O)[C@H](CCC(N)=O)NC(=O)[C@@H](N)CCCCN)C(=O)O` [KQK] was run?
A: n.s.

Q: And the “percentage inhibition of migration induced by SDF1α” value ([2]; tripeptide at 100 μM, mean ± range, dash = no statistically significant reduction in migration)?
A: 29 ± 1%

Q: And the “number … per cell, THP-1 cells” value [1]?
A: about 15,000 per cell

Q: And the “association constant for chemokine receptors on THP-1 cells” value ([1]; range printed with mixed units)?
A: 500 nM-1 μM

Q: Which “% inhibition at 100 μM versus SDF-1α, THP-1 migration” value [2] does the source give for EICADPKQKWVQ [peptide 3(1-12)[MCP-1]] here?
A: 107%

Q: And the EC50 ([2]; n.s. = no statistically significant inhibition (p > 0.05), read-out: ED50 versus SDF-1α, inhibition of THP-1 migration)?
A: 10 µM

Q: What about the “number … per cell, THP-1 cells” value [1] of the same compound?
A: 1000 per cell

Q: What about the “association constant (ka) for binding to THP-1 cells” value ([1]; listed as Peptide 3) of the same compound?
A: about 10 μM

Q: What about the “association constant (ka) for binding to THP-1 cells” value ([1]; listed as peptide 3) of the same compound?
A: 7 µM

Q: What about the Kd ([1]; read-out: affinity constant for binding to THP-1 cells in the presence of 100 μM peptide 2) of the same compound?
A: 8 µM

Q: Which results are given for “SYRRITSSKCPKEAV [peptide 2(1-15)[MCP-1]]”?
A: % inhibition at 100 μM versus SDF-1α, THP-1 migration [2]: n.s.; ED50 versus SDF-1α, inhibition of THP-1 migration [2, 3]: n.s.; SDF1a ED-50 ([2]; ns = not significantly different from control): ns; AVERAGE ED50, peptide 2 family: estimated ka for binding to THP-1 cells [1]: 2^e μM; association constant (ka) for binding to THP-1 cells [1]: 2 µM; number of binding sites per cell, THP-1 cells [1]: 130,000 per cell; association constant for chemokine receptors on THP-1 cells ([1]; listed as peptide 2): 250 nM; association constant for chemokine receptors on THP-1 cells ([1]; listed as peptide 2(1-15)[MCP1]): 300 nM
